The first series deals with T1, BACE1 (Homo sapiens, UniProt P56817).
T1 construct: Human HEK293 cells which are stably transfected with a vector expressing a cDNA of the human APP wt gene (APP695); endogenous in cells; host or cells: HEK293 stably transfected with human APP695 wt
T1 sequence (P56817 46-501): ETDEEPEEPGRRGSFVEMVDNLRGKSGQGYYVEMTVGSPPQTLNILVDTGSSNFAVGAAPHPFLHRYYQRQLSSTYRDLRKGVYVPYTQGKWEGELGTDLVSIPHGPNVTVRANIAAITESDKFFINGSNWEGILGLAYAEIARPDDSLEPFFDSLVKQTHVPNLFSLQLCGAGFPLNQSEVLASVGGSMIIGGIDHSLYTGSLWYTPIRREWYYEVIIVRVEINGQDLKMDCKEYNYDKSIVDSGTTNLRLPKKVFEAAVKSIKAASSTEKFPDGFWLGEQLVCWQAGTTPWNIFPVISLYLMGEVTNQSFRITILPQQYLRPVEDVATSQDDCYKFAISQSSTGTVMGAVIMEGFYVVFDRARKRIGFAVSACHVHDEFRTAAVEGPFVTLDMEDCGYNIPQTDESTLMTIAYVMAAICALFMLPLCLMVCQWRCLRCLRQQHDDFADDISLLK
The series is described as follows: Cellular Aβ-lowering assay (Aβ40 ELISA). The following applies: HEK293 cells stably expressing human APP695; Aβ40 in culture supernatant; read-out: BACE1 cell act. Aβ40 IC50. In kind it is cell-based. In short, it runs like this:
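Aβ40 in supernatant measured by sandwich ELISA (TMB, 450 nm) and quantified against a pure Aβ peptide standard curve.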
On the technique in general: In an ELISA, binding on a coated surface is turned into a signal by an enzyme label.
As usually defined, the IC50 is the concentration that gives 50% inhibition. Take `C[C@]1(c2cc(NC(=O)c3ncc(Cl)cc3Cl)ccc2F)N=C(N)OCC1(F)F` [Example 8, 3,5-Dichloro-pyridine-2-carboxylic acid [3-((R)-2-amino-5,5-difluoro-4-methyl-5,6-dihydro-4H-[1,3]oxazin-4-yl)-4-fluoro-phenyl]-amide]: the IC50 was determined as 0.015 µM.
Still for that read-out and setting: for `CC1(C)OC(N)=N[C@](C)(c2cc(NC(=O)c3ncc(C(F)(F)F)cc3Cl)ccc2F)C1(F)F` [Example 20, 3-Chloro-5-trifluoromethyl-pyridine-2-carboxylic acid [3-((R)-2-amino-5,5-difluoro-4,6,6-trimethyl-5,6-dihydro-4H-[1,3]oxazin-4-yl)-4-fluoro-phenyl]-amide] the value was 0.05 µM.
Still for that read-out and setting: for `C[C@]1(c2cc(NC(=O)c3ncc(C(F)(F)F)cc3Cl)ccc2F)N=C(N)OCC1(F)F` [Example 5, 3-Chloro-5-trifluoromethyl-pyridine-2-carboxylic acid [3-((R)-2-amino-5,5-difluoro-4-methyl-5,6-dihydro-4H-[1,3]oxazin-4-yl)-4-fluoro-phenyl]-amide] the value was 0.043 µM; for `CC1(C)OC(N)=N[C@](C)(c2cc(NC(=O)c3ncc(C#N)cc3Cl)ccc2F)C1(F)F` [Example 22, 3-Chloro-5-cyano-pyridine-2-carboxylic acid [3-((R)-2-amino-5,5-difluoro-4,6,6-trimethyl-5,6-dihydro-4H-[1,3]oxazin-4-yl)-4-fluoro-phenyl]-amide], 0.007 µM; for `CC1(C)OC(N)=N[C@](C)(c2cc(NC(=O)c3ccc(C#N)cn3)ccc2F)C1(F)F` [Example 21, 5-Cyano-pyridine-2-carboxylic acid [3-((R)-2-amino-5,5-difluoro-4,6,6-trimethyl-5,6-dihydro-4H-[1,3]oxazin-4-yl)-4-fluoro-phenyl]-amide], 0.007 µM.

Tested on in a further series: not listed separately
The series is described as follows: GSH human adduct formation in vitro. More on the design: key: NF = in vitro no significant adduct formation relative to control. The following applies: relative to control. It is filed as in vitro ADME.
With `C[C@]1(c2cc(NC(=O)c3ncc(C(F)(F)F)cc3Cl)ccc2F)N=C(N)OCC1(F)F` [Example 5, 3-Chloro-5-trifluoromethyl-pyridine-2-carboxylic acid [3-((R)-2-amino-5,5-difluoro-4-methyl-5,6-dihydro-4H-[1,3]oxazin-4-yl)-4-fluoro-phenyl]-amide], the “GSH human, adduct formation” value is “NF”.

(Values after patent US8389513B2, “2-amino-5,5-difluoro-5,6-dihydro-4H-[1,3]oxazin-4-yl)-phenyl]-amides” (Hoffmann-La Roche Inc., priority 2009, dated 2013).)
